{"source": "the supplement of paper PMC13380429", "details_in_all_cases": "72 h", "key": {"Calu-3 [1]": {"test_system": "Calu-3", "assay": "drug sensitivity score (DSS) for viability; higher = more toxic; extreme values may be limits of the assay"}, "Vero E6 [2]": {"test_system": "Vero E6", "assay": "drug sensitivity score (DSS) for viability; higher = more toxic; extreme values may be limits of the assay"}, "Caco-2 [3]": {"test_system": "Caco-2", "assay": "drug sensitivity score (DSS) for viability; higher = more toxic; extreme values may be limits of the assay"}, "HepG2 [4]": {"test_system": "HepG2", "assay": "drug sensitivity score (DSS) for viability; higher = more toxic; extreme values may be limits of the assay"}, "U2OS [5]": {"test_system": "U2OS", "assay": "drug sensitivity score (DSS) for viability; higher = more toxic; extreme values may be limits of the assay"}, "Calu-3 [6]": {"test_system": "Calu-3", "assay": "cell viability relative to DMSO; higher = less toxic"}, "Vero E6 [7]": {"test_system": "Vero E6", "assay": "cell viability relative to DMSO; higher = less toxic"}, "Caco-2 [8]": {"test_system": "Caco-2", "assay": "cell viability relative to DMSO; higher = less toxic"}, "HepG2 [9]": {"test_system": "HepG2", "assay": "cell viability relative to DMSO; higher = less toxic"}, "U2OS [10]": {"test_system": "U2OS", "assay": "cell viability relative to DMSO; higher = less toxic"}, "Calu-3 [11]": {"test_system": "Calu-3", "assay": "relative viability EC50 (midpoint between 100% and the lowest measured viability); higher = less toxic"}, "Vero E6 [12]": {"test_system": "Vero E6", "assay": "relative viability EC50 (midpoint between 100% and the lowest measured viability); higher = less toxic"}, "HepG2 [13]": {"test_system": "HepG2", "assay": "relative viability EC50 (midpoint between 100% and the lowest measured viability); higher = less toxic"}, "U2OS [14]": {"test_system": "U2OS", "assay": "relative viability EC50 (midpoint between 100% and the lowest measured viability); higher = less toxic"}, "Caco-2 [15]": {"test_system": "Caco-2", "assay": "relative viability EC50 (midpoint between 100% and the lowest measured viability); higher = less toxic"}}}
{"compound": "N[C@@H](CSC(c1ccccc1)(c1ccccc1)c1ccccc1)C(=O)O", "note": "[S-trityl-L-cysteine]", "values": [{"measurement": "drug sensitivity score", "setting": "Calu-3 [1]", "result": 0.5}, {"measurement": "drug sensitivity score", "setting": "Vero E6 [2]", "result": 3}, {"measurement": "drug sensitivity score", "setting": "Caco-2 [3]", "result": 2.1}, {"measurement": "drug sensitivity score", "setting": "HepG2 [4]", "result": 3.2}, {"measurement": "drug sensitivity score", "setting": "U2OS [5]", "result": 2.7}, {"measurement": "cell viability", "setting": "Calu-3 [6]; 1 nM", "result": 105, "unit": "%"}, {"measurement": "cell viability", "setting": "Calu-3 [6]; 10 nM", "result": 104, "unit": "%"}, {"measurement": "cell viability", "setting": "Calu-3 [6]; 100 nM", "result": 94.2, "unit": "%"}, {"measurement": "cell viability", "setting": "Calu-3 [6]; 1000 nM", "result": 92.5, "unit": "%"}, {"measurement": "cell viability", "setting": "Calu-3 [6]; 10000 nM", "result": 84.6, "unit": "%"}, {"measurement": "cell viability", "setting": "Vero E6 [7]; 1 nM", "result": 98.5, "unit": "%"}, {"measurement": "cell viability", "setting": "Vero E6 [7]; 10 nM", "result": 100, "unit": "%"}, {"measurement": "cell viability", "setting": "Vero E6 [7]; 100 nM", "result": 102, "unit": "%"}, {"measurement": "cell viability", "setting": "Vero E6 [7]; 1000 nM", "result": 99.2, "unit": "%"}, {"measurement": "cell viability", "setting": "Vero E6 [7]; 10000 nM", "result": 45, "unit": "%"}, {"measurement": "cell viability", "setting": "Caco-2 [8]; 1 nM", "result": 96.6, "unit": "%"}, {"measurement": "cell viability", "setting": "Caco-2 [8]; 10 nM", "result": 100, "unit": "%"}, {"measurement": "cell viability", "setting": "Caco-2 [8]; 100 nM", "result": 85.9, "unit": "%"}, {"measurement": "cell viability", "setting": "Caco-2 [8]; 1000 nM", "result": 98.4, "unit": "%"}, {"measurement": "cell viability", "setting": "Caco-2 [8]; 10000 nM", "result": 61.4, "unit": "%"}, {"measurement": "cell viability", "setting": "HepG2 [9]; 1 nM", "result": 83.6, "unit": "%"}, {"measurement": "cell viability", "setting": "HepG2 [9]; 10 nM", "result": 93, "unit": "%"}, {"measurement": "cell viability", "setting": "HepG2 [9]; 100 nM", "result": 104, "unit": "%"}, {"measurement": "cell viability", "setting": "HepG2 [9]; 1000 nM", "result": 100, "unit": "%"}, {"measurement": "cell viability", "setting": "HepG2 [9]; 10000 nM", "result": 40.5, "unit": "%"}, {"measurement": "cell viability", "setting": "U2OS [10]; 1 nM", "result": 101, "unit": "%"}, {"measurement": "cell viability", "setting": "U2OS [10]; 10 nM", "result": 104, "unit": "%"}, {"measurement": "cell viability", "setting": "U2OS [10]; 100 nM", "result": 94.6, "unit": "%"}, {"measurement": "cell viability", "setting": "U2OS [10]; 1000 nM", "result": 101, "unit": "%"}, {"measurement": "cell viability", "setting": "U2OS [10]; 10000 nM", "result": 48.5, "unit": "%"}, {"measurement": "relative viability EC50", "setting": "Calu-3 [11]", "result": "> 10", "unit": "µM"}, {"measurement": "relative viability EC50", "setting": "Vero E6 [12]", "result": 3.07, "unit": "µM"}, {"measurement": "relative viability EC50", "setting": "HepG2 [13]", "result": 3.21, "unit": "µM"}, {"measurement": "relative viability EC50", "setting": "U2OS [14]", "result": 3.25, "unit": "µM"}]}
{"compound": "CN(C)C(=O)C(=O)c1cn(C)c2cc(Cl)c(C(=O)N3CCC(Cc4ccc(F)cc4)CC3)cc12", "note": "[SX-011]", "values": [{"measurement": "drug sensitivity score", "setting": "Calu-3 [1]", "result": 0}, {"measurement": "drug sensitivity score", "setting": "Vero E6 [2]", "result": 0.1}, {"measurement": "drug sensitivity score", "setting": "Caco-2 [3]", "result": 2.3}, {"measurement": "drug sensitivity score", "setting": "HepG2 [4]", "result": 0.1}, {"measurement": "drug sensitivity score", "setting": "U2OS [5]", "result": 0}, {"measurement": "cell viability", "setting": "Calu-3 [6]; 1 nM", "result": 94.6, "unit": "%"}, {"measurement": "cell viability", "setting": "Calu-3 [6]; 10 nM", "result": 108, "unit": "%"}, {"measurement": "cell viability", "setting": "Calu-3 [6]; 100 nM", "result": 116, "unit": "%"}, {"measurement": "cell viability", "setting": "Calu-3 [6]; 1000 nM", "result": 97.3, "unit": "%"}, {"measurement": "cell viability", "setting": "Calu-3 [6]; 10000 nM", "result": 91.2, "unit": "%"}, {"measurement": "cell viability", "setting": "Vero E6 [7]; 1 nM", "result": 110, "unit": "%"}, {"measurement": "cell viability", "setting": "Vero E6 [7]; 10 nM", "result": 94.6, "unit": "%"}, {"measurement": "cell viability", "setting": "Vero E6 [7]; 100 nM", "result": 100, "unit": "%"}, {"measurement": "cell viability", "setting": "Vero E6 [7]; 1000 nM", "result": 93.2, "unit": "%"}, {"measurement": "cell viability", "setting": "Vero E6 [7]; 10000 nM", "result": 89.2, "unit": "%"}, {"measurement": "cell viability", "setting": "Caco-2 [8]; 1 nM", "result": 93.9, "unit": "%"}, {"measurement": "cell viability", "setting": "Caco-2 [8]; 10 nM", "result": 96.3, "unit": "%"}, {"measurement": "cell viability", "setting": "Caco-2 [8]; 100 nM", "result": 98.3, "unit": "%"}, {"measurement": "cell viability", "setting": "Caco-2 [8]; 1000 nM", "result": 93.5, "unit": "%"}, {"measurement": "cell viability", "setting": "Caco-2 [8]; 10000 nM", "result": 70.4, "unit": "%"}, {"measurement": "cell viability", "setting": "HepG2 [9]; 1 nM", "result": 112, "unit": "%"}, {"measurement": "cell viability", "setting": "HepG2 [9]; 10 nM", "result": 102, "unit": "%"}, {"measurement": "cell viability", "setting": "HepG2 [9]; 100 nM", "result": 104, "unit": "%"}, {"measurement": "cell viability", "setting": "HepG2 [9]; 1000 nM", "result": 102, "unit": "%"}, {"measurement": "cell viability", "setting": "HepG2 [9]; 10000 nM", "result": 86.5, "unit": "%"}, {"measurement": "cell viability", "setting": "U2OS [10]; 1 nM", "result": 99.1, "unit": "%"}, {"measurement": "cell viability", "setting": "U2OS [10]; 10 nM", "result": 100, "unit": "%"}, {"measurement": "cell viability", "setting": "U2OS [10]; 100 nM", "result": 97.1, "unit": "%"}, {"measurement": "cell viability", "setting": "U2OS [10]; 1000 nM", "result": 102, "unit": "%"}, {"measurement": "cell viability", "setting": "U2OS [10]; 10000 nM", "result": 91.2, "unit": "%"}, {"measurement": "relative viability EC50", "setting": "Calu-3 [11]", "result": "> 10", "unit": "µM"}, {"measurement": "relative viability EC50", "setting": "Vero E6 [12]", "result": "> 10", "unit": "µM"}, {"measurement": "relative viability EC50", "setting": "HepG2 [13]", "result": "> 10", "unit": "µM"}, {"measurement": "relative viability EC50", "setting": "U2OS [14]", "result": "> 10", "unit": "µM"}]}
{"compound": "CCOc1cc(N2CCC(O)CC2)ccc1Nc1ncc2c(n1)N(C)c1ccccc1C(=O)N2C", "note": "[XMD8-92]", "values": [{"measurement": "drug sensitivity score", "setting": "Calu-3 [1]", "result": 0.5}, {"measurement": "drug sensitivity score", "setting": "Vero E6 [2]", "result": 4.3}, {"measurement": "drug sensitivity score", "setting": "Caco-2 [3]", "result": 0.9}, {"measurement": "drug sensitivity score", "setting": "HepG2 [4]", "result": 0.8}, {"measurement": "drug sensitivity score", "setting": "U2OS [5]", "result": 1.8}, {"measurement": "cell viability", "setting": "Calu-3 [6]; 1 nM", "result": 90.2, "unit": "%"}, {"measurement": "cell viability", "setting": "Calu-3 [6]; 10 nM", "result": 112, "unit": "%"}, {"measurement": "cell viability", "setting": "Calu-3 [6]; 100 nM", "result": 98.1, "unit": "%"}, {"measurement": "cell viability", "setting": "Calu-3 [6]; 1000 nM", "result": 109, "unit": "%"}, {"measurement": "cell viability", "setting": "Calu-3 [6]; 10000 nM", "result": 77.5, "unit": "%"}, {"measurement": "cell viability", "setting": "Vero E6 [7]; 1 nM", "result": 99.7, "unit": "%"}, {"measurement": "cell viability", "setting": "Vero E6 [7]; 10 nM", "result": 93.2, "unit": "%"}, {"measurement": "cell viability", "setting": "Vero E6 [7]; 100 nM", "result": 99.7, "unit": "%"}, {"measurement": "cell viability", "setting": "Vero E6 [7]; 1000 nM", "result": 93.5, "unit": "%"}, {"measurement": "cell viability", "setting": "Vero E6 [7]; 10000 nM", "result": 41.2, "unit": "%"}, {"measurement": "cell viability", "setting": "Caco-2 [8]; 1 nM", "result": 96.1, "unit": "%"}, {"measurement": "cell viability", "setting": "Caco-2 [8]; 10 nM", "result": 93, "unit": "%"}, {"measurement": "cell viability", "setting": "Caco-2 [8]; 100 nM", "result": 90, "unit": "%"}, {"measurement": "cell viability", "setting": "Caco-2 [8]; 1000 nM", "result": 89.8, "unit": "%"}, {"measurement": "cell viability", "setting": "Caco-2 [8]; 10000 nM", "result": 84.6, "unit": "%"}, {"measurement": "cell viability", "setting": "HepG2 [9]; 1 nM", "result": 101, "unit": "%"}, {"measurement": "cell viability", "setting": "HepG2 [9]; 10 nM", "result": 99.4, "unit": "%"}, {"measurement": "cell viability", "setting": "HepG2 [9]; 100 nM", "result": 102, "unit": "%"}, {"measurement": "cell viability", "setting": "HepG2 [9]; 1000 nM", "result": 104, "unit": "%"}, {"measurement": "cell viability", "setting": "HepG2 [9]; 10000 nM", "result": 74.4, "unit": "%"}, {"measurement": "cell viability", "setting": "U2OS [10]; 1 nM", "result": 92.7, "unit": "%"}, {"measurement": "cell viability", "setting": "U2OS [10]; 10 nM", "result": 105, "unit": "%"}, {"measurement": "cell viability", "setting": "U2OS [10]; 100 nM", "result": 93.6, "unit": "%"}, {"measurement": "cell viability", "setting": "U2OS [10]; 1000 nM", "result": 94.6, "unit": "%"}, {"measurement": "cell viability", "setting": "U2OS [10]; 10000 nM", "result": 73.3, "unit": "%"}, {"measurement": "relative viability EC50", "setting": "Calu-3 [11]", "result": "> 10", "unit": "µM"}, {"measurement": "relative viability EC50", "setting": "Vero E6 [12]", "result": 2.26, "unit": "µM"}, {"measurement": "relative viability EC50", "setting": "Caco-2 [15]", "result": "> 10", "unit": "µM"}]}
